Source: US4297276A, “Thymosin beta 3 and beta 4” (Hoffman-La Roche Inc., priority 1980, dated 1981)
Numbered stars: 1 amine (or outer) side, 2 acyl side, 3 side chain; on linkers, the order of the positions; unused ones are H or OH. Bridge positions count the residues as written; N and C are the ends. Square brackets hold non-standard residues; d marks the D form. Peptide text beside a SMILES is read from it. I, II: the chains in the order shown. Actinocin(9to1) = Cc1c2oc3c(C)ccc(C(=O)[*:1])c3nc-2c(C(=O)[*:2])c(N)c1=O; NMeV = CN[C@H](C(=O)O)C(C)C; Sar = CNCC(=O)O

Columns and labels:
[1] = test system: TdT positive cells in T-cell populations; conditions: partially purified peptides; Low and Goldstein 1978; cited from earlier work
[2] = Isoelectric focusing (isoelectric point); type: physicochemical
Protocol: Isoelectric focusing was conducted for 90 minutes using a constant power of 25 watts (LKB Model 2103 power supply). The gels were fixed in 20% trichloroacetic acid for one hour. They were stained in 0.1% Coomassie Blue in 20% trichloroacetic acid and destained in 10% trichloroacetic acid.

[3] = test system: terminal deoxynucleotidyl transferase (TdT); assay: In vitro induction of TdT in fraction B bone marrow cells from NIH Swiss nu/nu mice; type: cell-based; conditions: for TdT induction relative to the thymosin fraction 5 level: BSA fraction B from bone marrow; for TdT specific activity: peak I activity only, incubation 18 hours with 50 ng/ml
Excerpt: The method of Raidt et al., J. Exp. Med. 128, 681 (1968) was used to fractionate different cell suspensions from spleen, thymus, lymph nodes or bone marrow. Four layers of cells were formed at the interfaces of the discontinuous BSA gradient: Fraction A between 10% and 23% BSA; fraction B between 23-26%; fraction C between 26-29%; and fraction D between 29-33% BSA. BSA (Path-O-Cyte 5, lots 25 and 26) was obtained from Miles Research Products (Elkhart, Ind.). Fractionated cells were washed three times in Ham's F-12 medium.
(§1) The procedure for enzyme extraction has been described previously by Pazmino et al., J. Immunol. 119, 494 (1977).
(§2) The TdT assay was adapted from Kung et al, J. Exp. Med. 141, 855 (1975). One unit of enzyme activity was defined as the amount catalyzing the incorporation of 1 pmol of dGTP into acid insoluble material per hour. The specific activity was calculated from the total enzyme activity recovered from phosphocellulose per 10^8 nucleated viable cells.
Ten daily injections of 100 μg were given intraperitoneally to six-week-old NIH Swiss nu/nu, which were sacrificed 24 hours after the last injection. For the in vitro induction experiments, cells were washed three times after BSA gradient fractionation in Ham's F-12 medium containing 100 U/ml penicillin, 100 μg/ml streptomycin and 10 μg/ml gentomycin. After being washed, cell concentrations were adjusted to 1×10^8 cells/dish in 20 ml of Ham's F-12 medium containing antibiotics, 5% fetal bovine serum (Flow Laboratories, Rockville, Md.) and different concentrations of thymosin or spleen fraction 5 or of any of the different peptides isolated from thymosin. After incubation for various periods of time, cells were collected, washed twice with Ham's F-12 and extracted as previously described for TdT activity.
The following peptides, isolated from thymosin, were assayed for their ability to induce TdT in vitro: α1, β1, β3, β4, and synthetic α-1.
(§3) Actinomycin D at 0.5 μg/ml was incubated for 12 hours in the presence of thymosin with fraction B from the bone marrow of NIH Swiss nu/nu mice to study their effect on TdT induction. To follow the effect of Actinomycin D on RNA synthesis, cells were labeled with [^3 H] uridine (10 μCi/ml) for the last 90 minutes of incubation.

[4] = test system: terminal deoxynucleotidyl transferase (TdT); assay: In vivo TdT assay in thymocytes from hydrocortisone acetate treated C57BL/6J mice; conditions: for TdT specific activity: daily for 9 to 11 days, thymocytes
Protocol: as §1, §2
Thymosin activity was also tested by a in vivo TdT assay. Different doses of thymosin fraction 5 and other purified thymosin polypeptides were injected into hydrocortisone acetate treated C57BL/6J mice daily for 9 to 11 days. The animals were sacrificed, thymocytes prepared and TdT activity determined using the method described by Pazmino et al., J. Immunol. 119, 494 (1977). […]

[5] = test system: RNA synthesis; assay: Effect of Actinomycin D on RNA synthesis ([3H] uridine labeling) in fraction B bone marrow cells; type: cell-based, mice; conditions: 0.5 μg/ml, 12 hours, in the presence of thymosin
Protocol: as §3

[6] = FIG. 3, bone marrow fraction B cells

Compound: Thymosin β4
- induction of TdT positive cells in T-cell populations [1]: induce TdT positive cells
- isoelectric point (pI) [2]: 5.1
- shape of TdT dose response [3]: increases as the doses increase
- TdT induction relative to the thymosin fraction 5 level [3]: 30%
- TdT specific activity [3]: 58.0 picomoles 3HdGTP/hour/10^8 cel

Compound: Thymosin β3
- induction of TdT positive cells in T-cell populations [1]: induce TdT positive cells
- TdT specific activity ([4]; 1 μg/infection): 2758.6 p moles (3HdGTP/30 min/10^8 ce
- TdT specific activity ([4]; 10 μg/infection): 2954.3 p moles (3HdGTP/30 min/10^8 ce
- activity in inducing TdT in vivo compared with thymosin fraction 5 ([4]; One μg of β3 vs 100 μg of thymosin fraction 5): as active in inducing TdT in vivo as 100 μg of thymosin fraction 5
- isoelectric point (pI) [2]: 5.2
- shape of TdT dose response [3]: increases as the doses increase
- TdT induction relative to the thymosin fraction 5 level [3]: ~80%
- concentration with significant TdT induction [3, 6]: 1 ng/mL
- optimal concentration for TdT induction [3, 6]: 10 ng/mL
- effect on TdT induction at higher concentrations ([3]; FIG. 3, β3 even at 500 ng/ml): no inhibition of induction was observed
- TdT specific activity [3]: 145.0 picomoles 3HdGTP/hour/10^8 cel

Compound: Cc1c2oc3c(C)ccc(C(=O)N[C@@H]4C(=O)N[C@H](C(C)C)C(=O)N5CCC[C@H]5C(=O)N(C)CC(=O)N(C)[C@@H](C(C)C)C(=O)O[C@@H]4C)c3nc-2c(C(=O)N[C@@H]2C(=O)N[C@H](C(C)C)C(=O)N3CCC[C@H]3C(=O)N(C)CC(=O)N(C)[C@@H](C(C)C)C(=O)O[C@@H]2C)c(N)c1=O [actinomycin D, Actinomycin D, reference compound] (I: T[dV]P[Sar][NMeV] / II: T[dV]P[Sar][NMeV]; ester I:1-I:C, II:1-II:C; linker I:N-II:N via Actinocin(9to1))
- effect on induction of TdT by thymosin ([3]; 0.5 μg/ml actinomycin D, 12 hours, in the presence of thymosin): inhibited, as is the induction of TdT
- inhibition of RNA synthesis [5]: greater than 95%
